Results reported in patent US20100029761A1, “NOVEL COMPOUNDS, PHARMACEUTICAL COMPOSITIONS CONTAINING SAME, AND METHODS OF USE FOR SAME” (priority 2005, published 2010).
Converted amounts (≈) assume the structure as drawn. Read-outs that look alike come from different tables or passages of the source.

Assays:
[1] = test system: MCF-7 human breast cancer cells; assay: Crystal violet cell growth assay; assay type: cell-based; conditions: MCF7, MCF-7, 72 hours, read-out: Cr. Violet (IC50)
Experimental: The crystal violet assay measures cell growth but not cytotoxicity. This assay employs crystal violet staining of fixed cells in 96-well plates with subsequent solubilization and measurement of OD490 on a spectrophotometer. The OD490 corresponds to cell growth per unit time measured. Cells are treated with the compounds of interest or vehicle controls and IC50 for each compound is computed.
To measure the cytotoxicity of specific compounds against cancer cells, 5×10^4 MCF-7 human breast cancer cells, obtained from the American Type Culture Collection are plated per well in 24 well plates in DMEM medium with 10% fetal bovine serum, penicillin, and streptomycin. Following overnight culture at 37° C. and 5% CO2, the compounds to be tested, dissolved in DMSO, are added to the wells in 1 μl volume at the following concentrations: 50, 40, 30, 20, and 10 μg/ml in triplicate. Additional concentrations are tested if required. 1 μl of DMSO is added to triplicate wells are the vehicle control. C75 is run at 10, and 5 μg/ml in triplicate as positive controls.
After 72 hours of incubation, cells are stained with 0.5 ml of Crystal Violet stain (0.5% in 25% methanol) in each well. After 10 minutes, wells are rinsed, air dried, and then solubilized with 0.5 ml 10% sodium dodecylsulfate with shaking for 2 hours. Following transfer of 100 μl from each well to a 96-well plate, plates are read at OD490 on a Molecular Devices SpectraMax Plus Spectrophotometer Average OD490 values are computed using SOFTmax Pro Software (Molecular Devices) and IC50 values are determined by linear regression analysis using Prism version 3.02 (Graph Pad Software, San Diego).

Weight loss screen = assay type: in vivo, Balb/C mice; conditions: 60 mg/kg intraperitoneally
Experimental: Balb/C mice (Jackson Labs) are utilized for the initial weight loss screening. Animals are housed in temperature and 12 hour day/night cycle rooms and fed mouse chow and water ad lib. Three mice are utilized for each compound tested with vehicle controls in triplicate per experiment. For the experiments, mice are housed separately for each compound tested three mice to a cage. Compounds are diluted in DMSO at 10 mg/ml and mice are injected intraperitoneally with 60 mg/kg in approximately 100 μl of DMSO or with vehicle alone. Mice are observed and weighed daily; average weights and standard errors are computed with Excel (Microsoft). The experiment continues until treated animals reach their pretreatment weights. Select compounds are tested in animals housed in metabolic cages. Dosing of animals are identical to the screening experiments with three animals to a single metabolic cage. Animal weights, water and food consumption, and urine and feces production are measured daily.

[2] = test system: Staphylococcus aureus (ATCC # 29213); assay: Broth microdilution MIC, S. aureus; assay type: cell-based; conditions: for MIC: Staphylococcus aureus, ATCC29213
Experimental: (§1) A broth microdilution assay is used to assess the antimicrobial activity of the compounds. […] Microorganisms tested include Staphylococcus aureus (ATCC # 29213), Enterococcus faecalis (ATCC # 29212), Pseudomonas aeruginosa (ATCC # 27853), and Escherichia coli (ATCC # 25922). The assay is performed in two growth media, Mueller Hinton Broth and Trypticase Soy Broth. A blood (Tsoy/5% sheep blood) agar plate is inoculated from frozen stocks maintained in T soy broth containing 10% glycerol and incubated overnight at 37° C. Colonies are suspended in sterile broth so that the turbidity matches the turbidity of a 0.5 McFarland standard. The inoculum is diluted 1:10 in sterile broth (Mueller Hinton or Trypticase soy) and 195 ul is dispensed per well of a 96-well plate. The compounds to be tested, dissolved in DMSO, are added to the wells in 5 ul volume at the following concentrations: 25, 12.5, 6.25, 3.125, 1.56 and 0.78 ug/ml in duplicate. Additional concentrations are tested if required. 5 ul of DMSO added to duplicate wells are the vehicle control. Serial dilutions of positive control compounds, vancomycin (E. faecalis and S. aureus) and tobramycin (E. coli and P. aeruginosa), are included in each run. After 24 hours of incubation at 37° C., plates are read at OD600 on a Molecular Devices SpectraMax Plus Spectrophotometer. Average OD600 values are computed using SOFTmax Pro Software (Molecular Devices) and MIC values are determined by linear regression analysis using Prism version 3.02 (Graph Pad Software, San Diego). The MIC is defined as the concentration of compound required to produce an OD600 reading equivalent to 10% of the vehicle control reading.

[3] = test system: fatty acid synthesis pathway activity in MCF-7 human breast cancer cells; assay: [14C]acetate incorporation into total lipids; assay type: cell-based; conditions: for 14C (IC50): [14C]acetate incorporation into lipids; for IC50: Homo sapiens, MCF7, [14C]acetate incorporation into lipids
Experimental: This assay measures the incorporation of [^14C]acetate into total lipids and is a measure of fatty acid synthesis pathway activity in vitro. It is utilized to measure inhibition of fatty acid synthesis in vitro.
MCF-7 human breast cancer cells cultured as above, are plated at 5×10^4 cells per well in 24-well plates. Following overnight incubation, the compounds to be tested, solubilized in DMSO, are added at 5, 10, and 20 μg/ml in triplicate, with lower concentrations tested if necessary. DMSO is added to triplicate wells for a vehicle control. C75 is run at 5 and 10 μg/ml in triplicate as positive controls. After 4 hours of incubation, 0.25 μCi of [^14C]acetate (10 μl volume) is added to each well.
After 2 hours of additional incubation, medium is aspirated from the wells and 800 μl of chloroform:methanol (2:1) and 700 μl of 4 mM MgCl2 is added to each well. Contents of each well are transferred to 1.5 Eppendorf tubes, and spun at full-speed for 2 minutes in a high-speed Eppendorf Microcentrifuge 5415D. After removal of the aqueous (upper) layer, an additional 700 μl of chloroform:methanol (2:1) and 500 μl of 4 mM MgCl2 are added to each tube and then centrifuged for 1 minutes as above. The aqueous layer is removed with a Pasteur pipette and discarded. An additional 400 μl of chloroform:methanol (2:1) and 200 μl of 4 mM MgCl2 are added to each tube, then centrifuged and aqueous layer is discarded. The lower (organic) phase is transferred into a scintillation vial and dried at 40° C. under N2 gas. Once dried, 3 ml of scintillant (APB #NBC5104) is added and vials are counted for ^14C. The Beckman Scintillation counter calculates the average cpm values for triplicates.
The IC50 for the compounds is defined as the concentration of drug leading to a 50% reduction in [^14C]acetate incorporation into lipids compared to controls. This is determined by plotting the average cpm for each inhibitor concentration tested, performing linear regression and computing the best-fit line, r^2 values, and 95% confidence intervals. The average cpm values are computed by the Beckman scintillation counter (Model LS6500) for each compound concentration. Computation of linear regression, best-fit line, r^2, and 95% confidence intervals are calculated using Prism Version 3.0 (Graph Pad Software).

[4] = test system: Pseudomonas aeruginosa (ATCC # 27853); assay: Broth microdilution MIC, P. aeruginosa; assay type: cell-based; conditions: for MIC: Pseudomonas aeruginosa, ATCC27853
Experimental: as §1

[5] = Mueller Hinton Broth, read-out: PSAE/MH (MIC)
[6] = Trypticase Soy Broth, read-out: PSAE/Tsoy (MIC)
[7] = Mueller Hinton Broth, read-out: SA/MH (MIC)
[8] = Trypticase Soy Broth, read-out: SA/Tsoy (MIC)

| IC50 [1] | 14C (IC50) [3] | MIC [4, 6] | Structure (SMILES) | other results |
| --- | --- | --- | --- | --- |
| 41.9 µg/mL (≈ 184 µM) | Neg | 210 µg/mL (≈ 920 µM) | CCCCC1OC(=O)C(O)=C1C(=O)OCC (stereo not shown) [Compound 2] | Weight Loss (Weight loss screen; day 4): 60 mg/kg: 12.3% (day 4); SA/MH (MIC) ([2]; Mueller Hinton Broth): Neg; SA/Tsoy (MIC) ([2]; Trypticase Soy Broth): Neg; MIC [4, 5]: 155 µg/mL (≈ 679 µM) |
| 10.7 µg/mL (≈ 35.9 µM) | Neg | – | CCCCCCCCC1OC(=O)C(OC)=C1C(=O)OCC (stereo not shown) [Compound 4] | – |
| 22 µg/mL (≈ 67.8 µM) | Neg | – | C=CCOC1=C(C(=O)OCC)C(CCCCCCCC)OC1=O (stereo not shown) [Compound 6] | – |
| 28 µg/mL (≈ 98.5 µM) | – | 103 µg/mL (≈ 362 µM) | CCCCCCCCC1OC(=O)C(=O)C1C(=O)OCC (stereo not shown) [Compound 1] | Weight Loss (Weight loss screen; day 4): 60 mg/kg: 9.7% (day 4); MIC [2, 7]: 32 µg/mL (≈ 113 µM); MIC [2, 8]: 25 µg/mL (≈ 87.9 µM); IC50 [3]: 40.7 ± 7.1 µg/mL (≈ 143 µM); PSAE/MH (MIC) ([4]; Mueller Hinton Broth): Neg |
| 17.1 µg/mL (≈ 45.7 µM) | Neg (stim) | – | CCCCCCCCC1OC(=O)C(OCc2ccccc2)=C1C(=O)OCC (stereo not shown) [Compound 5] | – |
| 35.4 µg/mL (≈ 95.6 µM) | – | 186 µg/mL (≈ 502 µM) | CCCCCCCCC1OC(=O)C(OCC(=O)OCC)=C1C(=O)OCC (stereo not shown) [Compound 3] | Weight Loss (Weight loss screen; day 1, printed with + sign): 60 mg/kg: +1.8% (day 1); MIC [2, 7]: 150 µg/mL (≈ 405 µM); MIC [2, 8]: 146 µg/mL (≈ 394 µM); IC50 [3]: 30 µg/mL (≈ 81 µM); MIC [4, 5]: 173 µg/mL (≈ 467 µM) |
| – | Neg | – | CCCCCCCCC1OC(=O)C(OC(=O)OCC)=C1C(=O)OCC (stereo not shown) [Compound 7] | – |
